Experimental data as given in patent US10300000B2, “Inhibition of melanogenesis by chemically modified curcumins” (The Research Foundation for The State University of New York, priority 2016, dated 2019).
pIC50: −log10 of the molar value. Like-named read-outs stand apart in the source and are kept apart here.

Key:
[1] = target: T1, cellular tyrosinase in HEM-DP cells (Homo sapiens, UniProt P14679); assay: Intracellular tyrosinase activity in human melanocytes; type: cell-based; settings: 48 hours
T1 construct: endogenous in cells; host or cells: HEM-DP (primary human epidermal melanocytes, darkly pigmented donor)
T1 sequence (P14679 19-529): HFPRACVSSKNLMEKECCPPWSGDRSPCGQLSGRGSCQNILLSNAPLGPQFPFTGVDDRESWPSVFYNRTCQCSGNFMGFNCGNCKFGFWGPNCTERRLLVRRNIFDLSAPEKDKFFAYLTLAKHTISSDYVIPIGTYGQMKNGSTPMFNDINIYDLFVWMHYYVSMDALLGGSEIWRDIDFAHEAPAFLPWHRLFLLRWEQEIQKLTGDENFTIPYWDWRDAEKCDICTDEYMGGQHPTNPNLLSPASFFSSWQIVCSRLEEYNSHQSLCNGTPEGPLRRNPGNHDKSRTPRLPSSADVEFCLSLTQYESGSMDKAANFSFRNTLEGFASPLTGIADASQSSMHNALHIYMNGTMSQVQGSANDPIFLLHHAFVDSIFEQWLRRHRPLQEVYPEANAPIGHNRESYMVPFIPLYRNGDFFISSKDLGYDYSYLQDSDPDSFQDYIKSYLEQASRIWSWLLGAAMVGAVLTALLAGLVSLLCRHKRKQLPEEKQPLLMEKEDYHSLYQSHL
Experimental: We quantitated the cellular tyrosinase activity of human melanocytes based on established methods. Briefly, human epidermal melanocytes from a darkly pigmented donor (HEM-DP) were cultured in 12-well tissue culture plates at density of 1.5×10^5 cells/well. After 48 hrs. media was changed and test compounds were added, and further incubated for 48 hrs. At the end of treatments, cells were trypsinized and cell pellets were washed in PBS and lysed with lysis buffer under ice for 30 minutes and then centrifuged to remove cellular debris. 50 μl of lysates were then aliquoted in 96-well microplate and 150 μl of freshly prepared 3 mM L-DOPA was added. The absorbance was then measured kinetically at 475 nm every 30 seconds for 30 minutes at 30° C. using microplate reader (Versamax®). The % inhibition of tyrosinase activity was calculated by determining melanin formation rates from the linear range of the slopes of melanin formation over time for the different samples and calculating % inhibition from the measured velocities of melanin formation.

[2] = tested on: normal human dermal fibroblasts (NHDF); assay: MTS cytotoxicity test with human dermal fibroblasts; settings: 48 hours
Experimental: Briefly 5×10^3 cells/well were plated in 96 wells and compounds added for 48 hours. MTS assay was then conducted and plate incubated for 1 hour and then 100 μl of supernatants were aliquoted into 96 well plates and absorbance read at 490 nm using Versamax microplate reader.

[3] = tested on: MITF; assay: MITF protein levels by cell-based ELISA in B16F10 cells; design: species or system mouse; settings: B16F10, 10 μM, 48 hours
Experimental: MITF is the master regulator of melanogenesis and a known transcription factor for tyrosinase gene. The effects of PC and CMCs on micropthalmia transcription factor (MITF) proteins levels were assayed using a cell-based ELISA (LifeSpan Biosciences, Seattle). Briefly, B16F10 cells were cultured in a 96-well plate at 1×10^4 cells/well for 24 hours and then media was replaced with fresh media containing compounds in 0.1% DMSO for further 48 hours. The cells were then fixed and subsequent steps were conducted based on manufacturer instructions. The absorbance of MITF expression levels were normalized by absorbance of crystal violet stain (0.05%) and data was reported as % of control.

[4] = tested on: B16F10 cells; assay: Melanin content quantification in B16F10 cells; type: cell-based, mouse; settings: Mus musculus, B16-F10
Experimental: B16F10 cells were seeded at 1×10^5 cells/well in 1.5 ml media in 12-well plates and incubated for 24 hours. […] For quantification of melanin content, cells were trypsinized and cell pellets were washed in PBS. Cell pellets were also visually observed for lightening of the intracellular pigment. After aspiration, 250 μL of 1N NaOH was added and heated to 70° C. to solubilize melanin. The aliquots were then transferred to a 96-well plate and absorbance was read at 475 nm using a microplate reader. A portion of the lysate was used to evaluate total protein content using BCA assay. The melanin absorbance was normalized by total protein content and expressed as % of control.

[5] = tested on: B16F10 mouse melanoma cells; type: cell-based; settings: for cell viability: mouse, 48 h
Experimental: In order to test the four CMCs (CMC2.14, CMC2.24, CMC2.5 and CMC2.23) alongside PC and THC, for their effects on melanin content, we first screened their nontoxic concentrations using MTS cytotoxicity (Promega CellTiter Aqueous One) assay. MTS is a tetrazolium salt which is reduced to purple colored formazan upon reaction with mitochondrial dehydrogenases. Briefly, B16F10 cells were seeded at 4×10^3 cells/well in 96-well plates for 24 hrs. […] Controls were treated with 0.16% DMSO. At the end of 48 hours, medium was aspirated and replaced by 100 μl of fresh media. MTS (20 μl) was added and incubated for 40 minutes and absorbance read at 490 nm using a Versamax® microplate reader. Cell viability was calculated from the absorbance values relative to control groups and expressed in %.

[6] = tested on: HaCaT cells; settings: human, 48 h, 10 μM
Experimental: Briefly, 2×10^4 cells/well were seeded in 96-well plates and after 24 hours, the compounds at concentrations of 5-25 μM were added to the wells and incubated for 48 hours. Absorbance was read after 1 hour of incubation of plates and results were expressed as % of control.

[7] = tested on: HEM-DP cells; assay: Melanin content quantification in human epidermal melanocytes; type: cell-based; settings: 48 hours
Experimental: Primary cultures of human epidermal melanocytes from a darkly pigmented donor were seeded at 2.2×10^5 cells/well in 1.5 ml media in 12-well plates and incubated for 48 hours. The test compounds were added to cultures and controls were treated with 0.16% DMSO, and further incubated for another 48 hours. For evaluation of melanin content, cells in the wells were trypsinized and cell pellets were washed in PBS. After aspiration, 250 μL of 1N NaOH was added and heated to 70° C. to solubilize melanin. The aliquots were then transferred to a 96-well plate and absorbance was read at 475 nm using microplate reader. A portion of the lysate was used to evaluate total protein content using […] bincinchonic acid (BCA) assay (Pierce BCA kit, Thermo Scientific). The absorbance of melanin was normalized to the total protein content for each lysate and reported as % of control.

[8] = tested on: intracellular ROS in B16F10 cells; assay: Intracellular ROS assay (H2DCFDA) in B16F10 cells; type: cell-based, mouse; settings: 48 hours
Experimental: Intracellular ROS generation was quantified using 2′,7′-dichlorodihydrofluorescein diacetate (H2DCFDA), a non-fluorescent dye which is trapped intracellularly by cleavage by intracellular esterases after reaction with reactive oxygen species (ROS); only the product, DCF, is fluorescent. For measuring intracellular ROS, B16F10 cells were seeded in 24 well plates at 4×10^4 cells/well. After 24 hours, media was aspirated and PC, THC and CMCs were added to the wells at different concentrations and further incubated for 48 hours. At the end of the incubations, the media was aspirated and cells were washed with PBS. DCFDA (Molecular Probes) was dissolved in DMSO to make 10 mM stock. DCFDA dye working stock (50 μM) was prepared by diluting the stock in DMEM (serum-free, phenol-red free and sodium pyruvate free) media and added to cells and further incubated for 45 minutes at 37° C. The cells were then washed with DPBS and fluorescence was read in bottom read mode, using a fluorescence microplate reader (Gemini EM Spectramax, Molecular Devices) set to excitation and emission wavelengths of 485 nm and 535 nm, respectively. Data was expressed as relative fluorescence % of treated vs. control.

[9] = Copper chelating activity assay (pyrocatechol violet); type: physicochemical; settings: PV dye method
Experimental: Metal ion chelation activity can be detected by pyrocatechol violet indicator assay which is similar to that reported in other studies with some modifications [Baek, S-H. et al. 2015]. Briefly, 100 μl of sample containing different concentrations of solutes were mixed with 50 mM sodium acetate buffer (pH 6.0) in a 96 well plate. Control group consisted of buffer only; KA at 500 μM was used as a positive control. Copper sulfate (2 mM; 10 μl) was added to the samples and incubated for 10 minutes. 10 μl of 2 mM pyrocatechol violet was then added and the plate was further incubated for 20 minutes. The absorbance was read at 632 nm using a microplate reader (Versamax). Lower absorbance compared to control was indicative of copper chelation.

[10] = tested on: αMSH-stimulated B16F10 cells; assay: Melanin content in αMSH-stimulated B16F10 cells; type: cell-based, mouse; design: dose or concentration left out as unconfirmed; settings: αMSH-stimulated B16F10, 48 hours
Experimental: B16F10 cells were seeded at 1×10^5 cells/well in 12-well plates and incubated for 24 hours. The test compounds were then added in presence or absence of αMSH (100 nM), and further incubated for another 48 hours. For evaluation of melanin content, cells were trypsinized, washed in PBS and then 250 μL of 1N NaOH was added and heated to 70° C. to solubilize melanin. The aliquots were then transferred to a 96-well plate and absorbance was read at 475 nm using microplate reader. The absorbance of melanin was normalized by total protein contents and reported as % of control.

[11] = tested on: HEM-DP cells; assay: MTS cytotoxicity test with human epidermal melanocytes; type: cell-based; settings: 5-25 μM, 48 hours
Experimental: For screening cytotoxicity of PC, THC and CMCs during 48 hours incubation on HEM-DP cells, we conducted MTS cytotoxicity assay. […] MTS reagent was added and incubated for 90 minutes and absorbance was read at 490 nm. The results are expressed as % relative to control.

## COc1cc(/C=C/C(=O)CC(=O)/C=C/c2ccc(O)c(OC)c2)ccc1O [PC, Curcumin]
[1]; 5 μM
  inhibition of cellular tyrosinase activity: significantly (p<0.01) inhibited
[1]; 10 μM
  inhibition of cellular tyrosinase activity: significantly (p<0.01) inhibited
[2]; 10 μM, MTS
  cell viability: 71.9%
[2]; range tested 5-25 μM
  toxicity: significantly toxic
[3]
  inhibition of MITF protein levels: ≤ 30%
[4]; B16F10, 10 μM, 48 hours
  inhibition at 10 µM: 32.1%
[4]; B16F10 cells exposed for 48 hours, non-linear curve fitting, read-out: IC50-Melanin Inhibition
  pIC50: 4.68
[5]
  cytotoxicity, overall ranking: most cytotoxic
[5]; B16F10, 5 μM, 48 hours, MTS
  increase of cell proliferation: 13%
[5]; 20 μM
  cell viability: 24.44%
[5]; 25 μM
  cell viability: 16.55%
[6]
  cell viability: 90.12%
[7]; nontoxic concentrations tested (PC 5 and 10 μM)
  effect on melanin content (words): did not show any significant difference
[8]; B16F10, 10 μM
  reduction of intracellular ROS: 24%
[9]
  copper chelating activity: did not show any effect

## O=c1cc(CO)occ1O [KA, kojic acid, reference compound]
[7]; 1 mM
  reduction in melanin content: 10%
[10]
  reduction of melanin: 20%

## COc1cc(CCC(=O)CC(=O)CCc2ccc(O)c(OC)c2)ccc1O [THC, Tetrahydrocurcumin]
[1]; 25 μM
  inhibition at 25 µM: 24%
[11]
  cytotoxicity: nontoxic
[8]; B16F10, 5 μM
  reduction of intracellular ROS: 24%
